This experiment is classed as in vivo, rat. On the procedure: Distilled water and saline were administered as vehicle to rats in each control group. […] Plasma cytokine levels were measured by ELISA or multiplex immunoassay; common metabolites and lipid mediators were analyzed by GC-MS/MS and LC-MS/MS, respectively.
Pathway maps of lipid mediators were created by using CellDesigner 4.4 software (http://www.celldesigner.org). We evaluated the effects of the treatments on specific lipid mediators and categorized them according to COX, CYP and LOX pathways by Fisher’s exact test. The proinflammatory and anti-inflammatory indices were analyzed as described by Tam et al. with modification.[22]

Setting [1] is: PM/P (polyI:C+maoto vs polyI:C), 2h.
Setting [2] is: PM/P (polyI:C+maoto vs polyI:C), 4h.
The mark [3] stands for this setting: first value of an incomplete line, time (2h or 4h) not assignable.

SMILES strings stand for the structures. Read-outs that look alike come from different tables or passages of the source.

`CCCCC/C=C\C[C@H](O)/C=C/C=C\C/C=C\CCCC(=O)O` [12-HETE]: the “log2FC of plasma level” value is listed as 1.25 (M/C (maoto vs control), 2h); -0.38 (M/C (maoto vs control), 4h); -0.61 (P/C (polyI:C vs control), 2h); 0.37 (P/C (polyI:C vs control), 4h); 1.33 under setting [1]; -0.36 under setting [2].
Turning to `CCCCC/C=C\C[C@@H]1[C@H](/C=C/C(O)CCCC(=O)O)[C@@H](O)C[C@H]1O` (stereo partly drawn) [5-iPF2α-VI], the “log2FC of plasma level” value reads like this: (M/C (maoto vs control), 2h) -0.16; (M/C (maoto vs control), 4h) -0.25; (P/C (polyI:C vs control), 2h) -0.73; (P/C (polyI:C vs control), 4h) 0.38; under setting [1], 0.75; under setting [2], -0.41.
Consider `CCCCC[C@H](O)/C=C/[C@@H]1[C@@H](C/C=C\CCCCCC(=O)O)[C@@H](O)C[C@H]1O` [1a1b-dihomo-PGF2α], for which the “log2FC of plasma level” value is recorded as 1.56. Also, the “log2FC of plasma level” value under setting [3] was 0.80.
For `CCCCCC(=O)/C=C/[C@H]1[C@H](O)CC(=O)[C@@H]1C/C=C\CCCC(=O)O` [15-keto-PGE2], the “log2FC of plasma level” value runs as follows: (M/C (maoto vs control), 2h) -0.28; (M/C (maoto vs control), 4h) -0.61; (P/C (polyI:C vs control), 2h) -0.15; (P/C (polyI:C vs control), 4h) 0.64; under setting [1], -0.07; under setting [2], -1.08.
As to `CCCCC[C@H](O)/C=C/[C@@H]1[C@@H](CC(=O)CCCCC(=O)O)[C@@H](O)C[C@H]1O` [6-keto-PGF1α], the “log2FC of plasma level” value was 0.16 (M/C (maoto vs control), 2h); 0.08 (M/C (maoto vs control), 4h); 1.21 (P/C (polyI:C vs control), 2h); 0.67 (P/C (polyI:C vs control), 4h); -0.35 under setting [1]; 0.01 under setting [2].
For `CCCCC/C=C\CC1OC1CCCCCCCC(=O)O` (stereo not shown) [9,10-EpOME], the “log2FC of plasma level” value is, setting by setting: (M/C (maoto vs control), 2h) 0.04; (M/C (maoto vs control), 4h) -0.80; (P/C (polyI:C vs control), 2h) 0.10; (P/C (polyI:C vs control), 4h) 0.36; under setting [1], -0.30; under setting [2], -1.14.
`CCCCCC1OC1C/C=C\C/C=C\C/C=C\CCCC(=O)O` (stereo not shown) [14,15-EET]: the “log2FC of plasma level” value was -0.23 (M/C (maoto vs control), 2h); -0.59 (M/C (maoto vs control), 4h); -0.40 (P/C (polyI:C vs control), 2h); 0.01 (P/C (polyI:C vs control), 4h); 0.02 under setting [1]; -0.47 under setting [2].
Consider `CCCCCC(=O)CCC1C(O)CC(=O)C1CCC(=O)O` (stereo not shown) [13,14-dihydro-15-keto-tetranor-PGE2], for which the “log2FC of plasma level” value is 0.05 (M/C (maoto vs control), 2h); -0.80 (M/C (maoto vs control), 4h); 2.37 (P/C (polyI:C vs control), 2h); 2.09 (P/C (polyI:C vs control), 4h); -0.40 under setting [1]; -2.03 under setting [2].
As for `CCCCC/C=C\CC(=O)/C=C/C=C\C/C=C\CCCC(=O)O` [12-KETE], the “log2FC of plasma level” value runs as follows: (M/C (maoto vs control), 2h) 0.74; (M/C (maoto vs control), 4h) -1.34; (P/C (polyI:C vs control), 2h) -0.45; (P/C (polyI:C vs control), 4h) 0.53; under setting [1], 0.54; under setting [2], -1.45.
`CCCCC/C=C\C\C=C/C=C/C=C/[C@@H](SC[C@H](N)C(=O)O)[C@@H](O)CCCC(=O)O` [LTE4]: the “log2FC of plasma level” value by setting is: (M/C (maoto vs control), 2h) -0.95; (M/C (maoto vs control), 4h) -1.00; (P/C (polyI:C vs control), 2h) 1.04; (P/C (polyI:C vs control), 4h) 0.58; under setting [1], -0.91; under setting [2], -0.51.
As for `CCCCCC(=O)/C=C/C=C\CCCCCCCCCC(=O)O` [15-KEDE], the “log2FC of plasma level” value runs as follows: (M/C (maoto vs control), 2h) 0.13; (M/C (maoto vs control), 4h) -0.62; (P/C (polyI:C vs control), 2h) -0.26; (P/C (polyI:C vs control), 4h) 0.83; under setting [1], 0.21; under setting [2], -1.15.
As to `CCCCCC(=O)CC[C@H]1[C@H](O)CC(=O)[C@@H]1C/C=C\CCCC(=O)O` [13,14-dihydro-15-keto-PGE2], the “log2FC of plasma level” value by setting is: (M/C (maoto vs control), 2h) 0.22; (M/C (maoto vs control), 4h) 0.13; (P/C (polyI:C vs control), 2h) 1.01; (P/C (polyI:C vs control), 4h) 0.22; under setting [1], -0.04; under setting [2], 0.42.
In the case of `CCCCC/C=C\C/C=C\C/C=C\C=C\[C@@H](O)CCCC(=O)O` [5-HETE], the “log2FC of plasma level” value by setting is: (M/C (maoto vs control), 2h) -0.06; (M/C (maoto vs control), 4h) -0.47; (P/C (polyI:C vs control), 2h) -0.07; (P/C (polyI:C vs control), 4h) 0.39; under setting [1], 0.01; under setting [2], -0.73.
With `CCC(O)/C=C/C=C\C/C=C\C/C=C\C/C=C\CCCC(=O)O` (stereo not shown) [18-HEPE], the “log2FC of plasma level” value by setting is: (M/C (maoto vs control), 2h) 0.08; (M/C (maoto vs control), 4h) -0.59; (P/C (polyI:C vs control), 2h) 0.02; (P/C (polyI:C vs control), 4h) 0.07; under setting [1], -0.16; under setting [2], -0.77.
With `CCCCC/C=C\C=C\[C@H](CCCCCCCC(=O)O)OO` [9-HpODE, 9S-hydroperoxy-10E,12Z-octadecadienoic acid], the “log2FC of plasma level” value is reported as 2.26 (M/C (maoto vs control), 2h); -2.31 (M/C (maoto vs control), 4h); 0.65 (P/C (polyI:C vs control), 2h); 0.35 (P/C (polyI:C vs control), 4h); -0.77 under setting [1]; -1.51 under setting [2].
On to `CCCCC/C=C\C/C=C\C/C=C\C/C=C\CCCC(=O)O` [AA, arachidonic acid], for which the “log2FC of plasma level” value is 0.19 (M/C (maoto vs control), 2h); -0.02 (M/C (maoto vs control), 4h); 0.12 (P/C (polyI:C vs control), 2h); 0.14 (P/C (polyI:C vs control), 4h); -0.10 under setting [1]; -0.04 under setting [2].
For the compound `CC/C=C\CC(O)/C=C/C=C\C/C=C\C/C=C\C/C=C\CCC(=O)O` (stereo not shown) [17-HDoHE], the “log2FC of plasma level” value was 0.30 (M/C (maoto vs control), 2h); -0.62 (M/C (maoto vs control), 4h); -0.12 (P/C (polyI:C vs control), 2h); 0.47 (P/C (polyI:C vs control), 4h); 0.18 under setting [1]; -0.79 under setting [2].
Turning to `CCCCC[C@H](O)/C=C/[C@H]1C(=O)C[C@H](O)[C@@H]1C/C=C\CCCC(=O)O` [PGD2], the “log2FC of plasma level” value is on record as -0.26 (M/C (maoto vs control), 2h); -0.58 (M/C (maoto vs control), 4h); 0.28 (P/C (polyI:C vs control), 2h); 0.92 (P/C (polyI:C vs control), 4h); -0.11 under setting [1]; -1.25 under setting [2].
In the case of `CC/C=C\C/C=C\CC(O)/C=C/C=C\C/C=C\CCCC(=O)O` (stereo not shown) [12-HEPE], the “log2FC of plasma level” value (M/C (maoto vs control), 2h) is recorded as 1.09; the “log2FC of plasma level” value (M/C (maoto vs control), 4h) is listed as -0.37; the “log2FC of plasma level” value (P/C (polyI:C vs control), 2h) was -0.06; the “log2FC of plasma level” value (P/C (polyI:C vs control), 4h) was 0.02; the “log2FC of plasma level” value under setting [1] came to 0.67; the “log2FC of plasma level” value under setting [2] is recorded as -0.27.
For `CCCCC/C=C\C/C=C\C/C=C\CC(O)C(O)CCCC(=O)O` (stereo not shown) [5,6-DHET], the “log2FC of plasma level” value reads like this: (M/C (maoto vs control), 2h) 0.42; (M/C (maoto vs control), 4h) -0.54; (P/C (polyI:C vs control), 2h) -0.14; (P/C (polyI:C vs control), 4h) 0.11; under setting [1], 0.23; under setting [2], -0.71.
Take `CCCCC[C@H](O)/C=C/[C@H]1[C@H](O)CC(=O)[C@H]1C/C=C\CCCC(=O)O` [8-iso-PGE2]: the “log2FC of plasma level” value runs as follows: (M/C (maoto vs control), 2h) -0.45; (M/C (maoto vs control), 4h) -0.43; (P/C (polyI:C vs control), 2h) -0.13; (P/C (polyI:C vs control), 4h) 0.77; under setting [1], -0.23; under setting [2], -0.98.
Regarding `CC/C=C\CC(O)C(O)C/C=C\C/C=C\C/C=C\CCCC(=O)O` (stereo not shown) [14,15-DiHETE], the “log2FC of plasma level” value (M/C (maoto vs control), 2h) came out at 0.41; the “log2FC of plasma level” value (M/C (maoto vs control), 4h) is on record as -0.20; the “log2FC of plasma level” value (P/C (polyI:C vs control), 2h) is on record as 0.14; the “log2FC of plasma level” value (P/C (polyI:C vs control), 4h) is on record as 0.00; the “log2FC of plasma level” value under setting [1] is recorded as -0.13; the “log2FC of plasma level” value under setting [2] is recorded as -0.17.
Consider `CC/C=C\C[C@H](O)/C=C/[C@H]1C(=O)C[C@H](O)[C@@H]1C/C=C\CCCC(=O)O` [PGD3], for which the “log2FC of plasma level” value is on record as -0.55. Further, the “log2FC of plasma level” value under setting [3] was -0.03.
Turning to `CCCCCC(=O)CCC1C(O)CC(O)C1CCC(=O)O` (stereo not drawn) [13,14-dihydro-15-keto-tetranor-PGF1β], the “log2FC of plasma level” value (M/C (maoto vs control), 2h) is on record as 0.11; the “log2FC of plasma level” value (M/C (maoto vs control), 4h) was 0.40; the “log2FC of plasma level” value (P/C (polyI:C vs control), 2h) is on record as 0.93; the “log2FC of plasma level” value (P/C (polyI:C vs control), 4h) amounted to 0.27; the “log2FC of plasma level” value under setting [1] came out at 0.11; the “log2FC of plasma level” value under setting [2] was -0.01.
Turning to `CCCCC[C@H](O)/C=C/[C@@H]1[C@@H](C/C=C\CCCC(=O)O)[C@@H](O)C[C@H]1O` [PGF2α], the “log2FC of plasma level” value (M/C (maoto vs control), 2h) is given as 0.30; the “log2FC of plasma level” value (M/C (maoto vs control), 4h) is on record as -0.20; the “log2FC of plasma level” value (P/C (polyI:C vs control), 2h) came out at 0.24; the “log2FC of plasma level” value (P/C (polyI:C vs control), 4h) is -0.04; the “log2FC of plasma level” value under setting [1] stood at 0.14; the “log2FC of plasma level” value under setting [2] was -0.13.

(Values after article PMC5654968 (NPJ Systems Biology and Applications, 2017).)
